# Values joined by “and” are separate entries in the source; they are usually repeats but may differ in a detail not shown here. Equal entries are not always repeated.
# Molecular target: T1, menin-MLL interaction (Homo sapiens, UniProt O00255)
# T1 sequence (O00255 1-610): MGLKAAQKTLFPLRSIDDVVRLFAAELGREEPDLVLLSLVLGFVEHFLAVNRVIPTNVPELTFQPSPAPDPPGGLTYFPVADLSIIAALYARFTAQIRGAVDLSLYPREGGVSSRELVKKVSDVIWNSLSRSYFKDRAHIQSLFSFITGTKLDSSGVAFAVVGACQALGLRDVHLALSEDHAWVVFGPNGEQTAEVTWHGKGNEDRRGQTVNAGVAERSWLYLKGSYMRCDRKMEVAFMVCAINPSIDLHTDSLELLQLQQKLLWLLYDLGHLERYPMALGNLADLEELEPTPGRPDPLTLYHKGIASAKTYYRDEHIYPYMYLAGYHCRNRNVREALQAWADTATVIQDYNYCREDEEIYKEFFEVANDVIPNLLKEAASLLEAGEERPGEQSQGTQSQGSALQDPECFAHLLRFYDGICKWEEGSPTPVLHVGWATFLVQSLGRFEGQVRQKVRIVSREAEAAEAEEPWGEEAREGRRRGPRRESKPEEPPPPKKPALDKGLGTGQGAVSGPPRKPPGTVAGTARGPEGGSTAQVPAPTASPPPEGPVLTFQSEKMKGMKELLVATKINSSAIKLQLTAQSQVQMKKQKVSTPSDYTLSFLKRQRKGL
# Assay: Fluorescence polarization (FP) competition assay of the menin-MLL interaction
# Assay type: binding
# Details: inhibition of the menin-MLL interaction; read-out: IC50 values for Table 1 inhibitors of menin
row,IC50,SMILES
1,30 to 100 nM,C=CC(=O)N1CCN(CCn2c(C#N)cc3cc(CN4CCC(Nc5ccnc6sc(CC(F)(F)F)cc56)CC4)ccc32)CC1 [Compound 1]
2,30 to 100 nM,C=CC(=O)N1CCN(CCCn2c(C#N)cc3cc(CN4CCC(Nc5ncnc6sc(CC(F)(F)F)cc56)CC4)ccc32)CC1 [Compound 2]
3,< 30 nM,C/C=C/C(=O)N1CCN(CCn2c(C#N)cc3c(C)c(CN4CCC(Nc5ncnc6sc(CC(F)(F)F)cc56)CC4)ccc32)CC1 [Compound 4]
4,30 to 100 nM,C#CC(=O)N1CCN(CCn2c(C#N)cc3c(C)c(CN4CCC(Nc5ncnc6sc(CC(F)(F)F)cc56)CC4)ccc32)CC1 [Compound 5]
5,< 30 nM,Cc1c(CN2CCC(Nc3ncnc4sc(CC(F)(F)F)cc34)CC2)ccc2c1cc(C#N)n2CCN1CCN(C(=O)/C=C/CN(C)C)CC1 [Compound 6]
6,< 30 nM,C/C=C/S(=O)(=O)N1CCN(CCn2c(C#N)cc3c(C)c(CN4CCC(Nc5ncnc6sc(CC(F)(F)F)cc56)CC4)ccc32)CC1 [Compound 7]
7,< 30 nM,C=CS(=O)(=O)N1CCC(CCn2c(C#N)cc3c(C)c(CN4CCC(Nc5ncnc6sc(CC(F)(F)F)cc56)CC4)ccc32)CC1 [Compound 8]
8,30 to 100 nM,C=CC(=O)NCc1cc(Cn2c(C#N)cc3c(C)c(CN4CCC(Nc5ncnc6sc(CC(F)(F)F)cc56)CC4)ccc32)n[nH]1 [Compound 10]
9,< 30 nM,C=CC(=O)NCCC(O)(CO)Cn1c(C#N)cc2c(C)c(CN3CCC(Nc4ncnc5sc(CC(F)(F)F)cc45)CC3)ccc21 (centres unmarked) [Compound 11]
10,100 to 1000 nM,"C=CS(=O)(=O)N1CC2CC1CN2CCn1c(C#N)cc2c(C)c(CN3CCC(Nc4ncnc5sc(CC(F)(F)F)cc45)CC3)ccc21 (centres unmarked) [Compound 17, 4-methyl-5-((4-((6-(2,2,2-trifluoroethyl)thieno[2,3-d]pyrimidin-4-yl)amino)piperidin-1-yl)methyl)-1-(2-(5-(vinylsulfonyl)-2,5-diazabicyclo[2.2.1]heptan-2-yl)ethyl)-1H-indole-2-carbonitrile]"
11,< 30 nM and 30 to 100 nM,C=CS(=O)(=O)N1CC2CCC(C1)N2CCn1c(C#N)cc2c(C)c(CN3CCC(Nc4ncnc5sc(CC(F)(F)F)cc45)CC3)ccc21 [Compound 18]
12,< 30 nM,C=CS(=O)(=O)N1C2CCC1CN(CCn1c(C#N)cc3c(C)c(CN4CCC(Nc5ncnc6sc(CC(F)(F)F)cc56)CC4)ccc31)C2 [Compound 23]
13,30 to 100 nM,C=CC(=O)N1C2CCC1CN(CCn1c(C#N)cc3c(C)c(CN4CCC(Nc5ncnc6sc(CC(F)(F)F)cc56)CC4)ccc31)C2 [Compound 24]
14,30 to 100 nM,C=CC(=O)NC1CCN(CCn2c(C#N)cc3c(C)c(CN4CCC(Nc5ncnc6sc(CC(F)(F)F)cc56)CC4)ccc32)CC1 [Compound 25]
15,< 30 nM,Cc1c(CN2CCC(Nc3ncnc4sc(CC(F)(F)F)cc34)CC2)ccc2c1cc(C#N)n2CCN1CCC(NC(=O)/C=C/CN(C)C)CC1 [Compound 27]
16,30 to 100 nM,C=CC(=O)NC1CN(CCn2c(C#N)cc3c(C)c(CN4CCC(Nc5ncnc6sc(CC(F)(F)F)cc56)CC4)ccc32)C1 [Compound 28]
17,< 30 nM,C=CC(=O)NC1CCN(CCn2c(C#N)cc3c(C)c(CN4CCC(Nc5ncnc6sc(CC(F)(F)F)cc56)CC4)ccc32)C1 (centres unmarked) [Compound 29]
18,< 30 nM,C=CC(=O)N[C@H]1CCN(CCn2c(C#N)cc3c(C)c(CN4CCC(Nc5ncnc6sc(CC(F)(F)F)cc56)CC4)ccc32)C1 [Compound 31]
19,< 30 nM,C=CC(=O)N[C@@H]1CCN(CCn2c(C#N)cc3c(C)c(CN4CCC(Nc5ncnc6sc(CC(F)(F)F)cc56)CC4)ccc32)C1 [Compound 32]

row,IC50,SMILES
1,30 to 100 nM,"C=CC(=O)Nc1nc(CCn2c(C#N)cc3c(C)c(CN4CCC(Nc5ncnc6sc(CC(F)(F)F)cc56)CC4)ccc32)cs1 [Compound 34, N-(4-(2-(2-cyano-4-methyl-5-((4-((6-(2,2,2-trifluoroethyl)thieno[2,3-d]pyrimidin-4-yl)amino)piperidin-1-yl)methyl)-1H-indol-1-yl)ethyl)thiazol-2-yl)acrylamide]"
2,< 30 nM,C=CC(=O)N1CCCN(CCn2c(C#N)cc3c(C)c(CN4CCC(Nc5ncnc6sc(CC(F)(F)F)cc56)CC4)ccc32)CC1 [Compound 66]
3,< 30 nM,"C=CC(=O)Nc1ccc(CCn2c(C#N)cc3c(C)c(CN4CCC(Nc5ncnc6sc(CC(F)(F)F)cc56)CC4)ccc32)cc1 [Compound 81, N-(4-(2-(2-cyano-4-methyl-5-((4-(6-(2,2,2-trifluoroethyl)thieno[2,3-d]pyrimidin-4-ylamino)piperidin-1-yl)methyl)-1H-indol-1-yl)ethyl)phenyl)acrylamide]"
4,< 30 nM,C=CC(=O)NC1CCN(CCn2c(C#N)cc3cc(CN4CCC(Nc5ncnc6sc(CC(F)(F)F)cc56)CC4)c(O)cc32)CC1 [Compound 93]
5,30 to 100 nM,C=CC(=O)NN1CCN(CCn2c(C#N)cc3c(C)c(CN4CCC(Nc5ncnc6sc(CC(F)(F)F)cc56)CC4)ccc32)CC1 [Compound 94]
6,< 30 nM,"C=CC(=O)Nc1ccc(CCn2c(C#N)cc3c(C)c(CN4CCC(Nc5ncnc6sc(CC(F)(F)F)cc56)CC4)ccc32)cn1 [Compound 100, N-(5-(2-(2-cyano-4-methyl-5-((4-(6-(2,2,2-trifluoroethyl)thieno[2,3-d]pyrimidin-4-ylamino)piperidin-1-yl)methyl)-1H-indol-1-yl)ethyl)pyridin-2-yl)acrylamide]"
7,< 30 nM,C=CC(=O)Nc1ccc(C(O)Cn2c(C#N)cc3c(C)c(CN4CCC(Nc5ncnc6sc(CC(F)(F)F)cc56)CC4)ccc32)cc1 (centres unmarked) [Compound 101]
8,< 30 nM,CCC(=O)Nc1ccc(CCn2c(C#N)cc3c(C)c(CN4CCC(Nc5ncnc6sc(CC(F)(F)F)cc56)CC4)ccc32)cc1 [Compound 102]
9,30 to 100 nM,CCC(=O)N1CCCN(CCn2c(C#N)cc3c(C)c(CN4CCC(Nc5ncnc6sc(CC(F)(F)F)cc56)CC4)ccc32)CC1 [Compound 103]
10,30 to 100 nM,Cc1c(CN2CCC(Nc3ncnc4sc(CC(F)(F)F)cc34)CC2)ccc2c1cc(C#N)n2CCc1ccc(N)c(S(C)(=O)=O)c1 [Compound 104]
11,< 30 nM,C=CC(=O)Nc1ccc(CCn2c(C#N)cc3c(C)c(CN4CCC(Nc5ncnc6sc(CC(F)(F)F)cc56)CC4)ccc32)cc1S(C)(=O)=O [Compound 105]
12,30 to 100 nM,C/C=C/C(=O)Nc1ccc(CCn2c(C#N)cc3c(C)c(CN4CCC(Nc5ncnc6sc(CC(F)(F)F)cc56)CC4)ccc32)cn1 [Compound 106]
13,< 30 nM,C=CC(=O)Nc1ccc(C(O)Cn2c(C#N)cc3c(C)c(CN4CCC(Nc5ncnc6sc(CC(F)(F)F)cc56)CC4)ccc32)cn1 (centres unmarked) [Compound 112]
14,30 to 100 nM,C=CC(=O)Nc1ccc(C(C)(O)Cn2c(C#N)cc3c(C)c(CN4CCC(Nc5ncnc6sc(CC(F)(F)F)cc56)CC4)ccc32)cc1 (centres unmarked) [Compound 115]
15,< 30 nM,Cc1c(CN2CCC(Nc3ncnc4sc(CC(F)(F)F)cc34)CC2)ccc2c1cc(C#N)n2CCN1CC2CNCC2C1 (centres unmarked) [Compound 167]
16,30 to 100 nM,C=CC(=O)N1CC2CN(CCn3c(C#N)cc4c(C)c(CN5CCC(Nc6ncnc7sc(CC(F)(F)F)cc67)CC5)ccc43)CC2C1 (centres unmarked) [Compound 168]
17,30 to 100 nM,Cc1c(CN2CCC(Nc3ncnc4sc(CC(F)(F)F)cc34)CC2)ccc2c1cc(C#N)n2CCN1CCC2(CCNC2)CC1 [Compound 169]
18,30 to 100 nM,C=CC(=O)N1CCC2(CCN(CCn3c(C#N)cc4c(C)c(CN5CCC(Nc6ncnc7sc(CC(F)(F)F)cc67)CC5)ccc43)CC2)C1 [Compound 170]
19,30 to 100 nM,Cc1c(CN2CCC(Nc3ncnc4sc(CC(F)(F)F)cc34)CC2)ccc2c1cc(C#N)n2CCN1CCC2(CCNC2)C1 (centres unmarked) [Compound 171]

# From patent USRE49687E1, “Thienopyrimidine and thienopyridine compounds and methods of use thereof” (The Regents of The University of Michigan, priority 2014, dated 2023)
